Test results as given in patent US20230114728A1 (Venatorx Pharmaceuticals, Inc., priority 2019, published 2023).
Converted amounts (≈) assume the structure as drawn.

Legend:
[1] = target: T1, E. coli K12 PBP3 (Escherichia coli, UniProt P0AD68); test: biochemical; format: binding
T1 construct: made in house
Outline: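 Fluorescence polarization (ex 490/em 520 nm) competition of inhibitors against Bocillin-FL at 0.1 μM, read up to 60 min. Final PBP levels: E. coli PBP3 1.5 μM; A. baumannii PBP2 2.5 μM, PBP3 0.2 μM in Tris pH 8.0/NaCl/glycerol/Tween 20; N. gonorrhoeae PBP2 […] in Hepes pH 8.0/NaCl/glycerol. EC50 = concentration halving PBP-bound Bocillin-FL.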

[2] = system: A. baumannii ATCC 19606; test: Broth microdilution MIC in CAMHB; format: cell-based; conditions: Acinetobacter baumannii, ATCC19606; MHB; read-out: Minimum Inhibitory Concentration, A. baumannii ATCC 19606
Outline: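 Hyper-permeable or efflux-deficient strains serve to probe outer-membrane penetration. Growth inhibition is scored visually after 16-20 h at 37° C in CAMHB, starting from 2-8×10^5 CFU/mL.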

[3] = system: P. aeruginosa ATCC 35151; test: Broth microdilution MIC in CAMHB; format: cell-based; conditions: Pseudomonas aeruginosa, ATCC35151; MHB; hyper-permeable strain; read-out: Minimum Inhibitory Concentration, P. aeruginosa ATCC 35151
Outline: (§1)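 Colonies from cation-adjusted Mueller Hinton agar are grown in broth (3-5 h, 37° C), adjusted by OD600, and added at 2-8×10^5 CFU/mL to 2-fold compound dilutions. After 16-20 h at 37° C, the lowest concentration without growth is taken as MIC.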

[4] = system: K. pneumoniae SI-117 producing VIM-1; test: Broth microdilution MIC in CAMHB; format: cell-based; conditions: Klebsiella pneumoniae, read-out: Minimum Inhibitory Concentration, K. pneumoniae SI-117
Outline: as §1

[5] = system: K. pneumoniae UMM producing SHV-5 and KPC-2; test: Broth microdilution MIC in CAMHB; format: cell-based; conditions: Klebsiella pneumoniae, read-out: Minimum Inhibitory Concentration, K. pneumoniae UMM
Outline: as §1

[6] = system: E. coli 901C; test: Broth microdilution MIC in CAMHB; format: cell-based; conditions: Escherichia coli; E. coli 901C (hyper-permeable); MHB; read-out: Minimum Inhibitory Concentration, E. coli 901C
Outline: as §1

[7] = system: P. aeruginosa ATCC 27853; test: Broth microdilution MIC in CAMHB; format: cell-based; conditions: Pseudomonas aeruginosa, ATCC27853; MHB; read-out: Minimum Inhibitory Concentration, P. aeruginosa ATCC 27853
Outline: as §1

[8] = system: K. pneumoniae 848844 producing SHV-11 and KPC-2; test: Broth microdilution MIC in CAMHB; format: cell-based; conditions: Klebsiella pneumoniae, read-out: Minimum Inhibitory Concentration, K. pneumoniae 848844
Outline: as §1

[9] = system: E. coli AG100; test: Broth microdilution MIC in CAMHB; format: cell-based; conditions: Escherichia coli; E. coli AG100 (wild-type parent); MHB; read-out: Minimum Inhibitory Concentration, E. coli AG100
Outline: as §1

T1 sequence (P0AD68 1-577): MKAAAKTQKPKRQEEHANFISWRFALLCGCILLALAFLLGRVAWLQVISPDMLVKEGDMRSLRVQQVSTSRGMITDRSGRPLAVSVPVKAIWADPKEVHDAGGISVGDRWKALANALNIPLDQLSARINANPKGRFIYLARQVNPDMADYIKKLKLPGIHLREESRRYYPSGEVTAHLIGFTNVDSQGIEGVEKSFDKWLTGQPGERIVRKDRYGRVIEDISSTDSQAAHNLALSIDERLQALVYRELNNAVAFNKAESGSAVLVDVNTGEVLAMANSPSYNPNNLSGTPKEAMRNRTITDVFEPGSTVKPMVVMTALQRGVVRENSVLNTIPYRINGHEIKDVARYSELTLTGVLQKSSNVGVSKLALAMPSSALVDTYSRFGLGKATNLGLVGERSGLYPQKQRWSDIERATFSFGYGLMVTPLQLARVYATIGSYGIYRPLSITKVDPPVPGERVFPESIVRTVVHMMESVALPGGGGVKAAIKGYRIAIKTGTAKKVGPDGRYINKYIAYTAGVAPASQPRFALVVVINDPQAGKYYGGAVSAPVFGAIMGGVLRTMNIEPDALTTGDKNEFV

Compound	EC50 [1]	MIC [2]	MIC [3]	MIC [4]	MIC [5]	MIC [6]	MIC [7]	MIC [8]	MIC [9]
NCCN1CCN(C(=O)N[C@@H](C(=O)N[C@H]2Cc3cccc(C(=O)O)c3OB2O)c2ccc(C(=O)O)cc2)C(=O)C1=O (single isomer, unassigned) [Example 84]	< 30 µM	> 128 µg/mL	0.5 to 1 µg/mL (≈ 0.881 to 1.76 µM)	> 128 µg/mL	8 to 16 µg/mL (≈ 14.1 to 28.2 µM)	0.5 to 1 µg/mL (≈ 0.881 to 1.76 µM)	32 to 64 µg/mL (≈ 56.4 to 113 µM)	32 to 64 µg/mL (≈ 56.4 to 113 µM)	8 to 16 µg/mL (≈ 14.1 to 28.2 µM)
NCCN1CCN(C(=O)NC(C(=O)N[C@H]2Cc3cccc(C(=O)O)c3OB2O)c2c(F)cc(O)cc2Cl)C(=O)C1=O (stereo partly drawn) [Example 94, (3R)-3-(2-(4-(2-aminoethyl)-2,3-dioxopiperazine-1-carboxamido)-2-(2-chloro-6-fluoro-4-hydroxyphenyl)acetamido)-2-hydroxy-3,4-dihydro-2H-benzo[e][1,2]oxaborinine-8-carboxylic acid]	< 30 µM	> 128 µg/mL	2 to 4 µg/mL (≈ 3.38 to 6.76 µM)	32 to 64 µg/mL (≈ 54.1 to 108 µM)	32 to 64 µg/mL (≈ 54.1 to 108 µM)	0.5 to 1 µg/mL (≈ 0.845 to 1.69 µM)	> 128 µg/mL	32 to 64 µg/mL (≈ 54.1 to 108 µM)	32 to 64 µg/mL (≈ 54.1 to 108 µM)
N=C(N)NCCN1CCN(C(=O)NC(C(=O)N[C@H]2Cc3ccc(F)c(C(=O)O)c3OB2O)c2ccc(C(=O)O)c(F)c2)C(=O)C1=O (stereo partly drawn) [Example 78, (3R)-3-(2-(4-carboxy-3-fluorophenyl)-2-(4-(2-guanidinoethyl)-2,3-dioxopiperazine-1-carboxamido)acetamido)-7-fluoro-2-hydroxy-3,4-dihydro-2H-benzo[e][1,2]oxaborinine-8-carboxylic acid]	30 to 500 µM	> 128 µg/mL	0.5 to 1 µg/mL (≈ 0.775 to 1.55 µM)	> 128 µg/mL	> 128 µg/mL	2 to 4 µg/mL (≈ 3.1 to 6.2 µM)	32 to 64 µg/mL (≈ 49.6 to 99.2 µM)	> 128 µg/mL	> 128 µg/mL
NCCN1CCN(C(=O)NC(C(=O)N[C@H]2Cc3cccc(C(=O)O)c3OB2O)c2cc(F)c(O)cc2F)C(=O)C1=O (stereo partly drawn) [Example 93, (3R)-3-(2-(4-(2-aminoethyl)-2,3-dioxopiperazine-1-carboxamido)-2-(2,5-difluoro-4-hydroxyphenyl)acetamido)-2-hydroxy-3,4-dihydro-2H-benzo[e][1,2]oxaborinine-8-carboxylic acid]	< 30 µM	> 128 µg/mL	0.5 to 1 µg/mL (≈ 0.869 to 1.74 µM)	32 to 64 µg/mL (≈ 55.6 to 111 µM)	8 to 16 µg/mL (≈ 13.9 to 27.8 µM)	0.5 to 1 µg/mL (≈ 0.869 to 1.74 µM)	> 128 µg/mL	32 to 64 µg/mL (≈ 55.6 to 111 µM)	8 to 16 µg/mL (≈ 13.9 to 27.8 µM)
CCN1CCN(C(=O)NC(C(=O)N[C@H]2Cc3cccc(C(=O)O)c3OB2O)c2ccc(O)c(NS(N)(=O)=O)c2)C(=O)C1=O (stereo partly drawn) [Example 30, (3R)-3-(2-(4-ethyl-2,3-dioxopiperazine-1-carboxamido)-2-(4-hydroxy-3-(sulfamoylamino)phenyl)acetamido)-2-hydroxy-3,4-dihydro-2H-benzo[e][1,2]oxaborinine-8-carboxylic acid]	< 30 µM	> 128 µg/mL	0.5 to 1 µg/mL (≈ 0.809 to 1.62 µM)	32 to 64 µg/mL (≈ 51.7 to 103 µM)	32 to 64 µg/mL (≈ 51.7 to 103 µM)	0.5 to 1 µg/mL (≈ 0.809 to 1.62 µM)	> 128 µg/mL	> 128 µg/mL	32 to 64 µg/mL (≈ 51.7 to 103 µM)
NCCN1CCN(C(=O)N[C@H](C(=O)N[C@H]2Cc3cccc(C(=O)O)c3OB2O)c2ccc(O)cc2F)C(=O)C1=O (single isomer, unassigned) [Example 88]	30 to 500 µM	> 128 µg/mL	2 to 4 µg/mL (≈ 3.59 to 7.18 µM)	> 128 µg/mL	> 128 µg/mL	8 to 16 µg/mL (≈ 14.4 to 28.7 µM)	> 128 µg/mL	> 128 µg/mL	> 128 µg/mL
NCCN1CCN(C(=O)NC(C(=O)N[C@H]2Cc3cccc(C(=O)O)c3OB2O)c2cc(Cl)c(O)cc2F)C(=O)C1=O (stereo partly drawn) [Example 87, (3R)-3-(2-(4-(2-aminoethyl)-2,3-dioxopiperazine-1-carboxamido)-2-(5-chloro-2-fluoro-4-hydroxyphenyl)acetamido)-2-hydroxy-3,4-dihydro-2H-benzo[e][1,2]oxaborinine-8-carboxylic acid]	< 30 µM	> 128 µg/mL	0.5 to 1 µg/mL (≈ 0.845 to 1.69 µM)	32 to 64 µg/mL (≈ 54.1 to 108 µM)	8 to 16 µg/mL (≈ 13.5 to 27 µM)	< 0.25 µg/mL	> 128 µg/mL	32 to 64 µg/mL (≈ 54.1 to 108 µM)	8 to 16 µg/mL (≈ 13.5 to 27 µM)
CCN1CCN(C(=O)NC(C(=O)N[C@H]2Cc3cccc(C(=O)O)c3OB2O)c2cccc(NC(=O)c3cncnc3)c2)C(=O)C1=O (stereo partly drawn) [Example 96, (3R)-3-(2-(4-ethyl-2,3-dioxopiperazine-1-carboxamido)-2-(3-(pyrimidine-5-carboxamido)phenyl)acetamido)-2-hydroxy-3,4-dihydro-2H-benzo[e][1,2]oxaborinine-8-carboxylic acid]	30 to 500 µM	> 128 µg/mL	2 to 4 µg/mL (≈ 3.18 to 6.36 µM)	> 128 µg/mL	> 128 µg/mL	0.5 to 1 µg/mL (≈ 0.794 to 1.59 µM)	> 128 µg/mL	> 128 µg/mL	> 128 µg/mL
CCN1CCN(C(=O)NC(C(=O)N[C@H]2Cc3cccc(C(=O)O)c3OB2O)c2ccc(C(=O)O)c(OC)c2)C(=O)C1=O (stereo partly drawn) [Example 48, (3R)-3-(2-(4-carboxy-3-methoxyphenyl)-2-(4-ethyl-2,3-dioxopiperazine-1-carboxamido)acetamido)-2-hydroxy-3,4-dihydro-2H-benzo[e][1,2]oxaborinine-8-carboxylic acid]	< 30 µM	> 128 µg/mL	0.5 to 1 µg/mL (≈ 0.859 to 1.72 µM)	> 128 µg/mL	> 128 µg/mL	2 to 4 µg/mL (≈ 3.43 to 6.87 µM)	> 128 µg/mL	> 128 µg/mL	> 128 µg/mL
CCN1CCN(C(=O)NC(C(=O)N[C@H]2Cc3cccc(C(=O)O)c3OB2O)c2ccc(O)cc2OC)C(=O)C1=O (stereo partly drawn) [Example 70, (3R)-3-(2-(4-ethyl-2,3-dioxopiperazine-1-carboxamido)-2-(4-hydroxy-2-methoxyphenyl)acetamido)-2-hydroxy-3,4-dihydro-2H-benzo[e][1,2]oxaborinine-8-carboxylic acid]	30 to 500 µM	> 128 µg/mL	8 to 16 µg/mL (≈ 14.4 to 28.9 µM)	> 128 µg/mL	> 128 µg/mL	0.5 to 1 µg/mL (≈ 0.902 to 1.8 µM)	> 128 µg/mL	> 128 µg/mL	> 128 µg/mL
CCN1CCN(C(=O)NC(C(=O)N[C@H]2Cc3cccc(C(=O)O)c3OB2O)c2ncc(C(=O)O)cc2F)C(=O)C1=O (stereo partly drawn) [Example 20, 6-(2-(((R)-8-carboxy-2-hydroxy-3,4-dihydro-2H-benzo[e][1,2]oxaborinin-3-yl)amino)-1-(4-ethyl-2,3-dioxopiperazine-1-carboxamido)-2-oxoethyl)-5-fluoronicotinic acid]	< 30 µM	> 128 µg/mL	0.5 to 1 µg/mL (≈ 0.875 to 1.75 µM)	> 128 µg/mL	32 to 64 µg/mL (≈ 56 to 112 µM)	< 0.25 µg/mL	> 128 µg/mL	> 128 µg/mL	32 to 64 µg/mL (≈ 56 to 112 µM)
CCN1CCN(C(=O)N[C@@H](C(=O)N[C@H]2Cc3cccc(C(=O)O)c3OB2O)c2cc(O)cc(O)c2)C(=O)C1=O (single isomer, unassigned) [Example 82]	30 to 500 µM	32 to 64 µg/mL (≈ 59.2 to 118 µM)	< 0.25 µg/mL	32 to 64 µg/mL (≈ 59.2 to 118 µM)	32 to 64 µg/mL (≈ 59.2 to 118 µM)	< 0.25 µg/mL	> 128 µg/mL	> 128 µg/mL	8 to 16 µg/mL (≈ 14.8 to 29.6 µM)
CCN1CCN(C(=O)NC(C(=O)N[C@H]2Cc3cccc(C(=O)O)c3OB2O)c2cccc([N+](=O)[O-])c2)C(=O)C1=O (stereo partly drawn) [Example 75, (3R)-3-(2-(4-ethyl-2,3-dioxopiperazine-1-carboxamido)-2-(3-nitrophenyl)acetamido)-2-hydroxy-3,4-dihydro-2H-benzo[e][1,2]oxaborinine-8-carboxylic acid]	30 to 500 µM	> 128 µg/mL	8 to 16 µg/mL (≈ 14.5 to 28.9 µM)	> 128 µg/mL	> 128 µg/mL	0.5 to 1 µg/mL (≈ 0.904 to 1.81 µM)	> 128 µg/mL	> 128 µg/mL	> 128 µg/mL
